Measurements: patent US12030878B2 (BRISTOL-MYERS SQUIBB COMPANY, priority 2017, dated 2024)

Columns and labels:
Type in all cases: cell-based
[1] = biological target: T1, human TLR8 (Homo sapiens, UniProt Q9NR97); assay: TLR8 inhibition reporter assay (HEK-Blue SEAP); details: HEK-Blue cells overexpressing human TLR8, stimulated with R848 15.9 μM, 22 hour incubation
T1 construct: host or cells: HEK-Blue cells
T1 sequence (Q9NR97 27-1041): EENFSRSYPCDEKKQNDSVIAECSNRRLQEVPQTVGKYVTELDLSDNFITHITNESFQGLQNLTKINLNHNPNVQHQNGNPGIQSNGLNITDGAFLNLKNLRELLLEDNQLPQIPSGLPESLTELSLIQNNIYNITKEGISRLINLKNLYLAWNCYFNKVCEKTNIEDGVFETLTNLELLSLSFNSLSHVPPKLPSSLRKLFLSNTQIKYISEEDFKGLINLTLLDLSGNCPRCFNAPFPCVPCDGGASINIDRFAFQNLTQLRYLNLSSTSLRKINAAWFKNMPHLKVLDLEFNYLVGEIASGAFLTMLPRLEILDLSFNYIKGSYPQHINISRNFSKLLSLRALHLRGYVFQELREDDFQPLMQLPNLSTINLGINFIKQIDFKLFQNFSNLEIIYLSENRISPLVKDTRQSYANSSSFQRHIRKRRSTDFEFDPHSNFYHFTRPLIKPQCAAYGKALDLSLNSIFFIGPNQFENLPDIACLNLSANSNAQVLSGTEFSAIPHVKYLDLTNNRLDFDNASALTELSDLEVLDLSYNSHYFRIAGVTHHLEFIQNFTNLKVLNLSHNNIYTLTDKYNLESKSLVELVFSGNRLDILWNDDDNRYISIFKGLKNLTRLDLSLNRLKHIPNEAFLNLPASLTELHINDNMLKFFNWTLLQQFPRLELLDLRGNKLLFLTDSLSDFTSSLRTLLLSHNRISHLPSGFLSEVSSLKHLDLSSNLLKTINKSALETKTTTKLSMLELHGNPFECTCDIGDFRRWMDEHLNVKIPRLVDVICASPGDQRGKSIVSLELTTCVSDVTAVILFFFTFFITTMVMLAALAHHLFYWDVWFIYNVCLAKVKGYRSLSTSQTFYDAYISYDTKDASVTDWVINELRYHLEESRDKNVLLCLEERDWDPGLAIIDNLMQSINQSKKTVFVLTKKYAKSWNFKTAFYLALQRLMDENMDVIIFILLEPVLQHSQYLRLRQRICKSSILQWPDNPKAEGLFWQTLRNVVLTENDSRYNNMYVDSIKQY
How it was run: (§1)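 Test compounds, final 0.05 nM–50 μM, pre-treat HEK-Blue human TLR7, TLR8 or TLR9 reporter cells before agonist addition (TLR8 R848 15.9 μM; TLR7 gardiquimod 7.5 μM; TLR9 ODN2006 5 nM). Incubation runs 22 h, 37 °C. SEAP detection gives percent inhibition against DMSO and reference-inhibitor controls.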

[2] = biological target: T2, human TLR9 (Homo sapiens, UniProt Q9NR96); assay: TLR9 inhibition reporter assay (HEK-Blue SEAP); details: HEK-Blue cells overexpressing human TLR9, stimulated with ODN2006 5 nM, 22 hour incubation
T2 construct: host or cells: HEK-Blue cells
T2 sequence (Q9NR96 26-1032): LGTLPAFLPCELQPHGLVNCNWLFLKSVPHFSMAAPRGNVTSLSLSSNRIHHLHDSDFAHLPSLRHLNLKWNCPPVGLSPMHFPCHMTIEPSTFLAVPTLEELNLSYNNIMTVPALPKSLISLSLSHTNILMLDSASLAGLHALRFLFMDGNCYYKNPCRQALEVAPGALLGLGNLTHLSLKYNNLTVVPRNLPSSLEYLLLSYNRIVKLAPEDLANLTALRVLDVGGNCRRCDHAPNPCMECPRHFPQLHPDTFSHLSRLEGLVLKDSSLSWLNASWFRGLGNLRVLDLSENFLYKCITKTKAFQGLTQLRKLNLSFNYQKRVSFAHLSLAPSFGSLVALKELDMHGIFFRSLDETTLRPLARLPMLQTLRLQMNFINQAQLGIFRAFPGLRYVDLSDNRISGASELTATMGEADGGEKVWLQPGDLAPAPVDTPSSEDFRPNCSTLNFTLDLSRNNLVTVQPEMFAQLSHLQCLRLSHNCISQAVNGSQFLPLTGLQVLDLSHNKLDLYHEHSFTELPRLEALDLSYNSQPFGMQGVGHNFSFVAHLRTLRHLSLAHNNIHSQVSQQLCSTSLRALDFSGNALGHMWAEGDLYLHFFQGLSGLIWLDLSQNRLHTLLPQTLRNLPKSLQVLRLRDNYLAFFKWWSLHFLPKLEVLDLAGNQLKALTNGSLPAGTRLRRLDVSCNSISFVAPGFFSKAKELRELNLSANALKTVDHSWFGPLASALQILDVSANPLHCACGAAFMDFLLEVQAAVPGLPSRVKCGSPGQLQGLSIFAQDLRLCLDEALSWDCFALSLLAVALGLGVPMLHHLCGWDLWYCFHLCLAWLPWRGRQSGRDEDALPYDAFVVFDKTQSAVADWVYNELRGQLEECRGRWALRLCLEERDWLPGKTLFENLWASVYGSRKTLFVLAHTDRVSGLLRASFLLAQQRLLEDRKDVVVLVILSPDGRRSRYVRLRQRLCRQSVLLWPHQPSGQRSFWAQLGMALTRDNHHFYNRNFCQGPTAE
How it was run: as §1

[3] = biological target: T3, human TLR7 (Homo sapiens, UniProt Q9NYK1); assay: TLR7 inhibition reporter assay (HEK-Blue SEAP); details: HEK-Blue cells overexpressing human TLR7, stimulated with gardiquimod 7.5 μM, 22 hour incubation
T3 construct: host or cells: HEK-Blue cells
T3 sequence (Q9NYK1 27-1049): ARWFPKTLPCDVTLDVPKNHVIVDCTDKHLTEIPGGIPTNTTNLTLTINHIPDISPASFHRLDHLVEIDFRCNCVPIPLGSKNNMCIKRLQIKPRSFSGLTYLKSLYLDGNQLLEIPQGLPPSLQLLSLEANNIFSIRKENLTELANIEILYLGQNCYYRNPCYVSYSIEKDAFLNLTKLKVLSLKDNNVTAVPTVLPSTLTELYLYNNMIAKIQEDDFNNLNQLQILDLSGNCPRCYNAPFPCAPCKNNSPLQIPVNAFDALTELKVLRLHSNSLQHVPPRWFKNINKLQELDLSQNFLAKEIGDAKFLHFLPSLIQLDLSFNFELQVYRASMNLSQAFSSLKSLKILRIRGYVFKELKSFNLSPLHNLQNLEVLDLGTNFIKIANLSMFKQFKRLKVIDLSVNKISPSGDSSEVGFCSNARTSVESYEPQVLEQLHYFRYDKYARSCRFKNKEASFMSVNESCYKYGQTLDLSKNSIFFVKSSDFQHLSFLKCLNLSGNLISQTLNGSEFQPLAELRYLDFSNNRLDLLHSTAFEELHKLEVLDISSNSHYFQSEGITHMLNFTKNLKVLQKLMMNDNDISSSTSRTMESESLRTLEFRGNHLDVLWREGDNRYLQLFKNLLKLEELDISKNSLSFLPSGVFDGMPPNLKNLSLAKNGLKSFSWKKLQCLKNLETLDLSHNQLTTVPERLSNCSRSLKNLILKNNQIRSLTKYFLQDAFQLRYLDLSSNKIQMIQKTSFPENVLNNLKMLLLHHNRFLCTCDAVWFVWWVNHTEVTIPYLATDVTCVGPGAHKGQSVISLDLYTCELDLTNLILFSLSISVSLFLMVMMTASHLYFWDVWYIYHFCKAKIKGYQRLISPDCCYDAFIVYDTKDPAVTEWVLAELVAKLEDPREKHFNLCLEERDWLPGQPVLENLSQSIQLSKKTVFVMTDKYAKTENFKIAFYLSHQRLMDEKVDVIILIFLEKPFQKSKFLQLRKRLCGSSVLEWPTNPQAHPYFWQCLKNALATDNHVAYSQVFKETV
How it was run: as §1

Row | IC50 [1] [nM] | IC50 [2] [nM] | IC50 [3] [nM] | Compound
1 | 3.1 | 1920 | 69 | Cc1cc(-c2[nH]c3ccc(OCCN(C)C)cc3c2C(C)C)ccn1 [Example 167, 2-((3-isopropyl-2-(2-methylpyridin-4-yl)-1H-indol-5-yl)oxy)-N,N-dimethylethan-1-amine]
2 | 4.7 | 243 | 3 | Cc1cc(-c2[nH]c3ccc(OCC4CCCNC4)cc3c2C(C)C)cc(C)n1 (stereo not drawn) [Example 94, 2-(2,6-dimethylpyridin-4-yl)-3-isopropyl-5-(piperidin-3-ylmethoxy)-1H-indole]
3 | 1.4 | 2830 | 2.9 | Cc1cc(-c2[nH]c3ccc(OC4CCN(CC(C)C)CC4)cc3c2C(C)C)cn2ncnc12 [Example 77, 6-(5-((1-isobutylpiperidin-4-yl)oxy)-3-isopropyl-1H-indol-2-yl)-8-methyl-[1,2,4]triazolo[1,5-a]pyridine]
4 | 14.9 | 5400 | 12.3 | Cc1c(-c2[nH]c3ccc(OCC4CCN(C(=O)CN(C)C)CC4)cc3c2C(C)C)cn(C)c(=O)c1C [Example 103, 5-(5-((1-(dimethylglycyl)piperidin-4-yl)methoxy)-3-isopropyl-1H-indol-2-yl)-1,3,4-trimethylpyridin-2(1H)-one]
5 | 1.3 | 528 | 3.8 | Cc1cc(-c2[nH]c3ccc(OC4CCN(CCCO)CC4)cc3c2C(C)C)cc(C)n1 [Example 72, 3-(4-((2-(2,6-dimethylpyridin-4-yl)-3-isopropyl-1H-indol-5-yl)oxy)piperidin-1-yl)propan-1-ol]
6 | 1 | 9580 | 0.7 | Cc1cc(-c2[nH]c3ccc(OCC4CCN(CCS(C)(=O)=O)CC4)cc3c2C(C)C)cn2ncnc12 [Example 91, 6-(3-isopropyl-5-((1-(2-(methylsulfonyl)ethyl)piperidin-4-yl)methoxy)-1H-indol-2-yl)-8-methyl-[1,2,4]triazolo[1,5-a]pyridine]
7 | 3.2 | 721 | 12.9 | Cc1cc(-c2[nH]c3ccc(OCC4CCNCC4)cc3c2C(C)C)ccn1 [Example 156]

The next lines start with the compound.

Row | Compound | IC50 [1] [nM] | IC50 [2] [nM] | IC50 [3] [nM]
8 | COc1ccc(-c2[nH]c3ccc(OCCC4CCNCC4)cc3c2C(C)C)cc1OC [Example 158, 2-(3,4-dimethoxyphenyl)-3-isopropyl-5-(2-(piperidin-4-yl)ethoxy)-1H-indole] | 27.6 | 2990 | 49
9 | Cc1cc(-c2[nH]c3ccc(OCC4CCN(C(C)C)CC4)cc3c2C(C)C)cn2ncnc12 [Example 42, 6-(3-isopropyl-5-((1-isopropylpiperidin-4-yl)methoxy)-1H-indol-2-yl)-8-methyl-[1,2,4]triazolo[1,5-a]pyridine] | 0.4 | 350 | 0.2
10 | Cc1cc(-c2[nH]c3ccc(OCCN4CCOCC4)cc3c2C(C)C)cn2ncnc12 [Example 5, 4-(2-((3-isopropyl-2-(8-methyl-[1,2,4]triazolo[1,5-a]pyridin-6-yl)-1H-indol-5-yl)oxy)ethyl)morpholine] | 3.3 | 37300 | 8.1
11 | CCc1c(-c2ccnc(C)c2)[nH]c2ccc(OCC3CCN(C)CC3)cc12 [Example 183, 3-ethyl-5-((1-methylpiperidin-4-yl)methoxy)-2-(2-methylpyridin-4-yl)-1H-indole] | 12 | 512 | 131
12 | COc1ccc(-c2[nH]c3ccc(OCC(=O)NCC(C)(C)O)cc3c2C(C)C)cc1OC [Example 150, 2-((2-(3,4-dimethoxyphenyl)-3-isopropyl-1H-indol-5-yl)oxy)-N-(2-hydroxy-2-methylpropyl)acetamide] | 947 | > 50000 | 302
13 | Cc1cc(-c2[nH]c3ccc(OC4CCNCC4)cc3c2C(C)C)ccn1 [Example 164, 3-isopropyl-2-(2-methylpyridin-4-yl)-5-(piperidin-4-yloxy)-1H-indole] | 1.1 | 1080 | 11.2
14 | Cc1cc(-c2[nH]c3ccc(OCC4CCN(CC(C)(C)O)CC4)cc3c2C(C)C)cn2ncnc12 [Example 27, 1-(4-(((3-isopropyl-2-(8-methyl-[1,2,4]triazolo[1,5-a]pyridin-6-yl)-1H-indol-5-yl)oxy)methyl)piperidin-1-yl)-2-methylpropan-2-ol] | 1.7 | 1750 | 0.5
15 | Cc1cc(-c2[nH]c3ccc(OCCN4CCOCC4)cc3c2C(C)C)ccn1 [Example 175, 4-(2-((3-isopropyl-2-(2-methylpyridin-4-yl)-1H-indol-5-yl)oxy)ethyl)morpholine] | 17.5 | 9940 | 439
16 | Cc1c(-c2[nH]c3ccc(OCC4CCN(CC(=O)N(C)C)CC4)cc3c2C(C)C)cn(C)c(=O)c1C [Example 88, 2-(4-(((3-isopropyl-2-(1,4,5-trimethyl-6-oxo-1,6-dihydropyridin-3-yl)-1H-indol-5-yl)oxy)methyl)piperidin-1-yl)-N,N-dimethylacetamide] | 22.4 | 15300 | 50.9
